Entries after “also recorded” stand apart in the source; their conditions may differ. Like-named read-outs stand apart in the source and are kept apart here.
Experiments:
[1] = format: in vivo, mouse
Procedure: FIG. 22 is a plot showing the mouse survival data as a function of metallodrug dose for MA_AuPr.
A single dose of the compound was administered by injection over the first week followed by two injections per week per mouse for a total period of 50 days.

[2] = tested on: plasma protein; assay: Plasma protein binding; format: in vitro ADME; conditions: LC-MS
Text: This is why binding to DNA of the intact chelate occurs (FIGS. 14 and 20). However, it is noteworthy that hydrolysis of a Au(III)-Npyrrole bond is a reaction that may be catalyzed by enzymes in plasma and could account for the plasma instability of MA_AuPr.

[3] = tested on: HepG2 human hepatocellular carcinoma cells; assay: HepG2 cytotoxicity / cell health parameters; format: cell-based
Text: The data for MA_AuPr in Scheme 22 are consistent with a cytotoxic compound capable of inducing apoptosis (programmed cell death) and, indeed, a compound that performs better than the control drug. […] Other cell health parameters which respond are a loss of total cells per well (indicating toxicity due to necrosis, apoptosis or a reduction in cellular proliferation), an increase in nuclear area (indicating necrosis or G2 cell cycle arrest), an increase in cytochrome c release (implying activation of a signalling cascade leading to apoptosis). The latter is particularly relevant as we may rule out cell death by necrosis in the case of MA_AuPr. The mechanism of action of the compound thus leads to cell cycle arrest in the G2 phase and the induction of apoptosis (highly desirable for an anticancer drug). […] Since the compound induces cytochrome c release, cytotoxicity involves apoptosis.

[4] = tested on: calf thymus DNA; assay: Calf-thymus DNA titration (absorption hypochroism); format: binding; conditions: MA series: pH 7.0 phosphate buffer at 37° C.
Procedure: FIG. 20 is a graph of the titration of MA_AuPr (1.1a) with calf-thymus DNA in aqueous pH 7 phosphate buffer at 37° C.
The hypochroism of the absorption band of the complex at 383 nm was monitored as a function of added ctDNA. […] Ka is the equilibrium binding constant in M^−1, Ct is the total Au(III) complex concentration, and s is the binding site size.

[5] = molecular target: T1, topoisomerase I (Homo sapiens, UniProt P11387); assay: Topoisomerase I poison/inhibitor EB gel assay; format: biochemical; conditions: compared with CPT (camptothecin)
T1 sequence (P11387 1-765): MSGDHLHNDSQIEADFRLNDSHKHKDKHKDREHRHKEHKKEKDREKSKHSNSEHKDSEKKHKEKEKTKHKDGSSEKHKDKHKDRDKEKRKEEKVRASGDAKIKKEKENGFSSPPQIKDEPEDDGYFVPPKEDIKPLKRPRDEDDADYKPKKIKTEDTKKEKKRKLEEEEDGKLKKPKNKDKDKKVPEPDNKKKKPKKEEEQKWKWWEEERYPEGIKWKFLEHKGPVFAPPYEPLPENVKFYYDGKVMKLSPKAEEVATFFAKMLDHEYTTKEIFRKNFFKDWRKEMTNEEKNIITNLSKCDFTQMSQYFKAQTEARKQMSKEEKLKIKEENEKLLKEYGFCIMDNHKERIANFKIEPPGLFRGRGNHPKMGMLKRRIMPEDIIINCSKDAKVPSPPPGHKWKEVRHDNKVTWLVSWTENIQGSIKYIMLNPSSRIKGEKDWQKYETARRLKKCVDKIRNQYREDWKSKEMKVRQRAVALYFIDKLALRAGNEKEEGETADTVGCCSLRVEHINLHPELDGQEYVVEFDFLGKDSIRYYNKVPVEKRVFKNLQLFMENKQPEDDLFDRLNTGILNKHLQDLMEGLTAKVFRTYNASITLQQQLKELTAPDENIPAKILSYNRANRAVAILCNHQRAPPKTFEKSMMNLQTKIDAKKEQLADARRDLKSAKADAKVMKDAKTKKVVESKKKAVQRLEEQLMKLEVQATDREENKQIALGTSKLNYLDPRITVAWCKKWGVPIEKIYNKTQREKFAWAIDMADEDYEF
Procedure: The compound MA_AuPr clearly targets topoisomerase II if the statistical analysis of the NCI data for a range of drugs shown in FIG. 13 is correct. MA_AuPr was therefore assayed for its action against topoisomerase II in vitro using TopoGEN's standard protocol over a wide range of test agent concentrations (0.005 to 500 μM) in order to obtain direct experimental proof for the apparent cellular target of the compound to ensure that a fundamental understanding of the mechanism of action of this new class of Au(III) compounds exists. These experiments were performed by the company TopoGEN and at the University of Central Florida. The DNA cleavage experiments were performed in vitro using purified topoisomerase I and II enzymes and supercoiled plasmid DNA as the substrate. The controls that were used in the experiment were linear marker DNA as well as reactions without the gold(III) complex and high concentrations of VP16. The compound VP16 (etoposide) is a commercially available DNA intercalator chemotherapeutic agent, widely used in the treatment of lung and testicular cancers as well as lymphomas. […]

C1=NCCCN=Cc2ccc[n]2[Au+][n]2cccc21.[Cl-] [MA_AuPr, 2,2′-{propane-1,3-diylbis[nitrilo(E)methylylidene]}bis(pyrrol-1-ido)gold(III) chloride]
health and weight of mice ([1]; 1 to 30 μmol/kg, 50 days): remained healthy and showed no abnormal weight changes
acute toxicity ([1]; mice, injection, 1 to 30 μmol/kg doses): > 30 μmol/kg/week
chronic toxicity ([1]; mice, two injections per week, 50 days): > 60 μmol/kg/week
Plasma protein binding [2]: did not bind to plasma protein; also recorded: No binding - drug
Cytotoxicity (Hep-G2) [3]: Strong positive
Cytochrome C release MEC ([3]; HepG2): 19 µM
DNA structure MEC ([3]; HepG2): >19 µM
Mitochondrial mass MEC ([3]; HepG2): 2.1 µM
Mitochondrial membrane potential MEC ([3]; HepG2): 6.2 µM
Nuclear Area MEC ([3]; HepG2): 6.2 µM
Cell Loss MEC ([3]; HepG2, minimum effective concentration): <0.23 µM
AC50 ([3]; HepG2, read-out: Cell Loss AC50): 7.4 µM
AC50 ([3]; HepG2, read-out: Cytochrome C release AC50): 33 µM
AC50 ([3]; HepG2, read-out: Membrane permeability AC50): 16 µM
AC50 ([3]; HepG2, read-out: Mitochondrial mass AC50): 41 µM
AC50 ([3]; HepG2, read-out: Mitochondrial membrane potential AC50): > 500 µM
AC50 ([3]; HepG2, read-out: Nuclear Area AC50): 17 µM
Ka (calf thymus DNA) [4]: 2.05(2) × 10^5 M^−1
activity against topoisomerase I [5]: inactivity; also recorded: not a topoisomerase I poison
